Values after ≈ are worked out from the molar mass of the structure shown. Counter-ions that a name gives are not always drawn. Like-named read-outs stand apart in the source and are kept apart here.
What was measured:
water solubility = format: physicochemical; settings: for solubility: water
Description: The title compound was determined to have a high water solubility (>80 mg/mL) by methods known by those of skill in the art.

[1] = system: phenylbenzoquinone (PBQ)-induced writhing in mice; assay: Writhing Assay (PBQ-induced writhing, analgesic activity in mice); format: in vivo, Charles River male albino mice; settings: for Writhing assay, number of mice out of nine or ten in which the test compound produced analgesia, I.G. / Writhing assay, number of mice out of nine or ten in which the test compound produced analgesia, S.C.: 30 mg/kg, PBQ i.p. 30 min later; for ED50: Mus musculus
Source text: The Writhing Assay is one of the most widely-used experimental procedures for measuring the analgesic activity of different narcotic and nonnarcotic analgesic agents, and involves the continuous, chemically-induced pain of visceral origin to an animal, such as a mouse or rat. [Gyires et al., Arch. int. Pharmacodyn, 267, 131-140 (1984); C. Vander Wende et al., Fed. Proc., 15, 494 (1956); Koster et al., Fed. Proc., 18, 412 (1959); and Witken et al., J. Pharmacol. exp. Ther., 133, 400-408 (1961).]Chemicals which may be used to induce this pain include phenylbenzoquinone (PBQ) and acetic acid. As a result of the chemical irritation to the animal, a characteristic stretching and writhing of the animal (dorsiflexion of the animal's back, extension of its hindlimbs and the strong contraction of its abdominal musculature) will generally occur. […] Drugs which reduce the number of writhes of the animal appear to restore the normal nociceptive threshold of the animal.
Charles River male albino mice, weighing 20 to 30 grams, were used in this assay.
Thirty minutes after subcutaneous or intragastric administration to ten mice of 30 mg per kilogram of body weight of a compound of the present invention ("test compound"), […] per 10 g of body weight of a 0.025% w/v solution of PBQ was injected intraperitoneally into each mouse. Ten mice which were given saline in place of a test compound of the invention were used as a control group.
Five minutes later, each mouse was individually placed into a glass beaker for observation, and the number of writhes occurring during the following ten-minute period was counted.
A test compound was considered to have produced analgesia in a mouse if, in accordance with the conditions set forth above, and under the test criteria employed for this assay, after the administration of 30 mg per kilogram of body weight of a compound of the present invention to the mouse, the number of writhes elicited by a mouse injected with PBQ was equal to, or less than, one-half the median number of writhes recorded for the saline-treated control group of mice that day, as described by Taber in "Predictive Value of Analgesic Assays in Mice and Rats," Advances in Biochemical Psychopharmacology, 8, 191 (1974).
The results for the particular compounds of the present invention analyzed in this assay, and discussed in the examples identified below which correspond thereto, are presented in Table I hereinbelow as fractions under the heading "WRITHING ASSAY." The fractions indicate the number of mice, out of ten, in which the test compound produced analgesia.
The standard initial screening dose of a test compound employed in this assay was […] for both routes of administration. If this initial screening dose of the test compound produced analgesia in seven of ten mice, then the effect of additional doses of the test compound on the writhing response was evaluated, and then the ED50 dose was generally calculated. (The slopes of the dose-response curves for all test compounds analyzed were compared as described by Tallarida and Murray, Manual of Pharmacologic Calculations, Page 11 (Springer Verlag, New York, 1981)).

[2] = target: T1, prostaglandin E2-induced contractions of segments of guinea pig ileum (Cavia porcellus, UniProt A0A286XHJ6); assay: Prostaglandin (PGE) Antagonism Assay; format: cell-based; settings: isolated ileum, 37° C., read-out: PGE in guinea pig ileum pA2 (converted)
T1 construct: Segments of ileum about 2 cm long were then cut and mounted in a 10 mL tissue bath; from tissue; host or cells: guinea pig ileum segments
T1 sequence (A0A286XHJ6 1-405): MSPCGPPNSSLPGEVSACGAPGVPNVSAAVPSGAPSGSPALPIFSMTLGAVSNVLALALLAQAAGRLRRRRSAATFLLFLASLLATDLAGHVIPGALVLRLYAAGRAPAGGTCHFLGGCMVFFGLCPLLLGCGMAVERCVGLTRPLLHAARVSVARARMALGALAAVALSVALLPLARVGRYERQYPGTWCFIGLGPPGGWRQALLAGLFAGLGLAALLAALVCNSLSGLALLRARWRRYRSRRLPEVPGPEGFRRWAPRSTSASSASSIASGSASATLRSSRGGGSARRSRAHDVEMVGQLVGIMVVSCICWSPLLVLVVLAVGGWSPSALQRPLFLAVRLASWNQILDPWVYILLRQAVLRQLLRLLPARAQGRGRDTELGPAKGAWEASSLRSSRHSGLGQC
Description: In order to determine the effectiveness of several of the compounds of the present invention ("test compounds") as prostaglandin E2 antagonists,a prostaglandin antagonism assay was conducted, as described below, to determine the ability of these compounds to inhibit prostaglandin E2 -induced contractions of segments of guinea pig ileum.
Male albino guinea pigs weighing 200 to 500 grams were sacrificed by cervical dislocation. The ilea were then quickly removed from the guinea pigs and placed in a modified Tyrode solution, a solution which is known to those skilled in the art, containing one-half of the usual amount of magnesium ions.
Segments of ileum about 2 cm long were then cut and mounted in a 10 mL tissue bath containing the modified Tyrode solution. The solution was maintained at 37° C. and aerated with a gaseous mixture of 95% oxygen and 5% carbon dioxide. Data for a control prostaglandin E2 dose response curve plotting concentration of prostaglandin E2 versus the intensity of contractions, detected isotonically, was then obtained by experimentally adjusting the dose of the prostaglandin E2 being injected into the tissue bath, in a manner known by those of skill in the art. […]
A dose ratio of EC50 doses was then calculated from the results of each test in a manner known by those of skill in the art. […]

[3] = system: prostaglandins, isolated smooth muscle preparations; settings: cited from earlier work
micturition reflex = settings: urethane-anesthetized rats; cited from earlier work

| SMILES | Writhing assay, number of mice out of nine or ten in which the test compound produced analgesia, I.G. ([1]; intragastric) | Writhing assay, number of mice out of nine or ten in which the test compound produced analgesia, S.C. ([1]; subcutaneous) | other results |
| --- | --- | --- | --- |
| CCS(=O)(=O)CCC(=O)NNC(=O)N1Cc2ccccc2Oc2ccc(Cl)cc21 [8-chlorodibenz[b,f][1,41oxazepine-10(11H)-carboxylic acid, 2-[3(ethylsulfonyl)-1-oxopropyl]hydrazide, reference compound] |  |  | solubility (water solubility; comparison compound): 80 µg/mL (≈ 183 µM) |
| O=C(O)/C=C\C(=O)N1Cc2ccccc2Oc2ccc(Cl)cc21 [Example 2, 4-(8-chloro-10,11-dihydrodibenz[b,f]-oxazepin-10-yl)-4-oxo-2Z-butenoic acid] | 1/10 | 4/10 |  |
| CCCCOC(=O)/C=C\C(=O)N1Cc2ccccc2Oc2ccc(Cl)cc21 [Example 3, Butyl 4-(8-chloro-10,1! -dihydrodibenz[b,f]-oxazepin-10-yl)-4-oxo-2Z-butenoate] | 6/10 | 4/10 |  |
| CCCCOC(=O)/C=C/C(=O)N1Cc2ccccc2Oc2ccc(Cl)cc21 [Example 4, Butyl 4-(8-chloro-10,11-dihydrodibenz[b,f]-oxazepin-10-yl)-4-oxo-2E-butenoate] | 6/10 | 6/10 |  |
| CCCCNC(=O)/C=C\C(=O)N1Cc2ccccc2Oc2ccc(Cl)cc21 [Example 5] | 4/10 | 6/10 |  |
| COC(=O)/C=C/C(=O)N1Cc2ccccc2Oc2ccc(Cl)cc21 [Example 7, Methyl 4-(8-chloro-10,11-dihydrodibenz[b,f]-oxazepin-10-yl)-4-oxo-2E-butenoate] | 3/10 | 6/9 |  |
| CN(C)CCNC(=O)/C=C/C(=O)N1Cc2ccccc2Oc2ccc(Cl)cc21 [Example 8, 4-(8-chloro-10,11-dihydrodibenz[b,f]oxazepin-10-yl) -N-[2-(dimethylamino)ethyl]-4-oxo-2E-butenamide, monohydrochloride] |  |  | water solubility (in words) (water solubility): highly water soluble; solubility (water solubility): > 80000 µg/mL; Kb [2]: 1.86 µM; ED50 ([1]; po, intragastric, read-out: Writhing assay ED50 Dose, I.G.): 8.3 mg/kg; ED50 ([1]; sc, subcutaneous, read-out: Writhing assay ED50 Dose, S.C.): 8.3 mg/kg; Writhing Assay potency ranking (in words) ([1]; among compounds tested): most potent compound of the invention tested in this assay |
| O=C(CCC(=O)N1Cc2ccccc2Oc2ccc(Cl)cc21)NCc1ccncc1 [Example 9, 8-chloro-γ-oxo-N-(4-pyridinylmethyl)dibenz[b,f]-[1,4]oxazepine-10(11)-butanamide] | 6/10 |  | Kb [2]: 2.4 µM |
| CN(C)CCNC(=O)CCC(=O)N1Cc2ccccc2Oc2ccc(Cl)cc21 [Example 10, 8-chloro-N-[2-(dimethylamino)ethyl]-γ-oxodibenz [b,f][1,4]oxazepine-10(11)-butanamide] | 6/9 |  |  |
| O=C(Cc1ccccc1)NNC(=O)N1Cc2ccccc2Oc2ccc(Cl)cc21 [SC-18637] |  |  | inhibition of stimulant actions of prostaglandins (in words) [3]: inhibit the stimulant actions of prostaglandins on isolated smooth muscle preparations |
| CC(=O)NNC(=O)N1Cc2ccccc2Oc2ccc(Cl)cc21 [SC-19220] |  |  | bladder capacity (in words) (micturition reflex): increased the bladder capacity; voiding efficiency of micturition (in words) (micturition reflex): reduced the voiding efficiency of micturition; inhibition of stimulant actions of prostaglandins (in words) [3]: inhibit the stimulant actions of prostaglandins on isolated smooth muscle preparations |
